Measured values reported in BindingDB's records for patent US10849881 (Hoffmann-La Roche, 2020).

Target: Autotaxin (Homo sapiens, UniProt Q13822)
Assay: Enzyme Inhibition Assay
Method: ATX inhibition was measured by a fluorescence quenching assay using a specifically labeled substrate analogue (MR121 substrate). To obtain this MR121 substrate, BOC and TBS protected 6-amino-hexanoic acid (R)-3-({2-[3-(2-{2-[2-(2-amino-ethoxy)-ethoxy]-ethoxy}-ethoxy)-propionylamino]-ethoxy}-hydroxy-phosphoryloxy)-2-hydroxy-propyl ester (Ferguson et al., Org Lett 2006, 8 (10), 2023) was labeled with MR121 fluorophore (CAS 185308-24-1, 1-(3-carboxypropyl)-11-ethyl-1,2,3,4,8,9,10,11-octahydro-dipyrido[3,2-b:2′,3′-i]phenoxazin-13-ium) on the free amine of the ethanolamine side and then, after deprotection, subsequently with tryptophan on the side of the aminohexanoic acid.Assay working solutions were made as follows:Assay buffer (50 mM Tris-HCl, 140 mM NaCl, 5 mM KCl, 1 mM CaCl2, 1 mM MgCl2, 0.01% Triton-X-100, pH 8.0;ATX solution: ATX (human His-tagged) stock solution (1.08 mg/mL in 20 mM bicine, pH 8.5, 0.15 M NaCl, 10% glycerol, 0.3% CHAPS, 0.02% NaN3), diluted to 1.4-2.5× final concentration in assay buffer;MR121 substrate solution: MR121 substrate stock solution (800 μM MR121 substrate in DMSO), diluted to 2-5× final concentration in assay buffer.

IC50: 17 nM
SMILES: O=C(c1ccc2cc(Br)ccc2c1)N1C[C@@H]2[C@H](C1)[C@H]1CN(C(=O)c3ccc4[nH]nnc4c3)C[C@@H]21 [US10849881, Example 1.004]
